Converted amounts (≈) assume the structure as drawn.

The test system of data set [1] is Enterococcus faecalis ATCC 29212 (sensitive). It counts as cell-based. Conditions: ATCC 29212, 18 h. Here is the method: (§1) We screened all five peptides against the ATCC reference strains and the clinical isolates according to Method M7-A7 of the National Committee for Clinical Laboratory Standards (CLSI, [2007]). The MIC50 and MBC values were determined using a broth microdilution and growth inhibition method previously reported by Leon-Calvijo et al. ([2015]), with some modifications (Wiegand et al., [2008]). Briefly, the MIC50 experiments comprised a liquid-inhibition growth assay in a sterile, untreated, 96-well flat-bottom tissue culture plate. The bacteria were cultured overnight n Mueller Hinton agar; three colonies were transferred to 8 mL of Mueller Hilton broth and incubated at 37°C until the mid-exponential phase of growth. The turbidity of the cultures was measured and adjusted spectrophotometrically to a McFarland standard of 0.5, and then diluted to a final concentration of 5 × 10^7 colony forming units (CFU) per well. Stock solutions (2,000 μM) of each test peptide were serially diluted to final concentrations (per well) of 200, 100, 50, 25, 12.5, and 6.25 μM. Each concentration was evaluated in duplicate and each assay was performed in triplicate.
(§2) Wells containing Mueller Hilton broth with bacterial inoculum only served as bacterial-growth controls. Additional controls included Mueller Hilton broth alone (as blank) and Mueller Hilton broth with ciprofloxacin (2 μg/mL; as positive control). The microplate was incubated for 24 h at 37°C, and growth inhibition was measured by monitoring the optical density at 620 nm (OD620). The MIC50 was defined as the peptide concentration at which bacterial growth was inhibited by 50%.
(§3) To determine the MBC, an aliquot from each well of the MIC50 assay was spread onto Mueller Hilton agar. After 18 h at 37°C, the concentration that inhibited bacterial growth was determined. Each of these tests was performed four times. MBC was defined as the lowest concentration of peptide at which the number of bacteria was reduced by 99.9% in vitro (European Committee for Antimicrobial Susceptibility Testing, [2000]).

The subject of data set [2] is Enterococcus faecalis ATCC 51575 (resistant). Format: cell-based. Here is the method: as §1, §2, §3
The subject of data set [3] is Pseudomonas aeruginosa ATCC 10145 (sensitive). It counts as cell-based. Here is the method: as §1, §2, §3
For data set [4], the system named is Pseudomonas aeruginosa ATCC 27853 (resistant). It counts as cell-based. Here is the method: as §1, §2, §3
In the next data set the test system is human erythrocytes. As to the kind of experiment: Hemolytic activity. It counts as cell-based. Conditions: red cells of human, 2 h. On the procedure:
Human erythrocytes collected from the blood samples of healthy humans were harvested by centrifugation for 7 min at 162 × g and washed three times in phosphate-buffered saline (PBS). The erythrocytes (2% hematocrit in PBS) were incubated with peptide molecules at several concentrations (6.25, 12.5, 25, 50, and 100 μM) for 2 h at 37°C. PBS was used as negative control for hemolysis, and sterile distilled water was used as positive control (100% hemolysis). The plate was subsequently centrifuged at 1,459 × g for 10 min at 4°C. Aliquots of the supernatant from each well (75 μL) were carefully transferred to a new sterile 96-well plate, and hemolytic activity was evaluated by measuring the OD492 using an Asys Expert Plus Microplate reader. The experiments were performed in duplicate, and hemolytic activity was calculated for each peptide.

Data set [5] relates to Gram-negative ATCC strains (K. pneumoniae 13883 and 700603, P. aeruginosa 10145 and 27853). The source says:
We determined the therapeutic index of each peptide, which we defined as the ratio of Maximum Hemolytic Activity (Hmax) to MIC50 (Hmax/MIC50).
The therapeutic index (TI) is a ratio of the toxic dose of a substance to its therapeutically-active dose and can be calculated different ways (e.g., LD50/ED50). Here, we calculated a TI value for each peptide against all the Gram-positive or the Gram-negative ATCC strains, by dividing its Hmax by its MIC50 for the given group of strains. […] Additionally, to make our quantitative analysis more robust [geometric mean (Khachatryan et al., [2017]) and fold values], we have included MIC50 values for these peptides against S. aureus and K. pneumoniae that we previously obtained using the same assay, the M7-A7 method of the National Committee for Clinical Laboratory Standards (Leon-Calvijo et al., [2015]).

Regarding `CSCC[C@H](NC(=O)[C@H](CCCNC(=N)N)NC(=O)[C@H](Cc1c[nH]c2ccccc12)NC(=O)[C@H](CCC(N)=O)NC(=O)[C@H](Cc1c[nH]c2ccccc12)NC(=O)[C@H](CCCNC(=N)N)NC(=O)[C@H](CCCNC(=N)N)NC(=O)[C@H](CS)NC(=O)[C@H](CCCCN)NC(=O)[C@@H](N)Cc1ccccc1)C(=O)N[C@@H](CCCCN)C(=O)N[C@@H](CCCCN)C(=O)N[C@@H](CC(C)C)C(=O)NCC(=O)N[C@@H](C)C(N)=O` [LfcinB (17–31), reference compound], the MBC was over 200.0 µM in data set [1]; over 200.0 µM in data set [2] (ATCC 51575, 18 h); over 200.0 µM in data set [3] (ATCC 10145, 18 h); over 200.0 µM in data set [4] (ATCC 27853, 18 h). In addition, the MIC50 was over 200.0 µM in data set [2] (ATCC 51575, 24 h); 111.7 µM (≈ 223 µg/mL) in data set [3] (ATCC 10145, 24 h); 99.6 µM (≈ 199 µg/mL) in data set [4] (ATCC 27853, 24 h). Also, the “H50, concentration of peptide leading to 50% hemolysis” value in the data set on human erythrocytes is over 100 µM. In addition, the “Gm, geometric mean of MIC50 values” in data set [5] is reported as 105.5.

The record behind these values is publication PMC5840262, “Design, Synthesis and Evaluation of Branched RRWQWR-Based Peptides as Antibacterial Agents Against Clinically Relevant Gram-Positive and Gram-Negative Pathogens” (Frontiers in Microbiology, 2018).
